According to PMC9271885 (eBioMedicine, 2022):
“And” between values parts separate entries of the source, which are not always exact repeats. Identical values can stand only once. Like-named read-outs stand apart in the source and are kept apart here.

Test: Quantification of TIZ in plasma, lung and nasal turbinates of hamsters (HPLC-UV)
Type: in vivo, Syrian hamsters
Description: Quantification of TIZ in plasma and lung tissues was performed by high-performance liquid chromatography with UV detection method (Alliance 2695, Waters, USA) with a lower limit of quantification of 0.01µg/mL. The mobile phase consisted of 0.1% FA in water and 0.1% of FA in ACN (65:35, v/v). The chromatographic separation was achieved using an isocratic mode with an Xbridge BEH C18 2.5μm 4.6 × 100mm column. Peak area was quantified at 340nm using the Waters 2489 detector. TIZ was extracted by a simple protein precipitation method, using acetonitrile for plasma and ice-cold acetonitrile for clarified lung homogenates. Briefly, 200µL of samples matrix was added to 1000µL of acetonitrile solution containing the internal standard (thiopental), then vortexed for 2min followed by centrifugation for 10min at 4°C. The supernatant medium was evaporated under vacuum, then transferred to a 1.5mL Eppendorf tube. The dried residue was reconstituted with 100µl of ACN:water (50:50), vortexed for 30 seconds and centrifuged again for 10min at 4°C. The supernatant was transferred to an autosampler and 50µL was injected.
We used tissues from infected animals sacrificed at 3 dpi following multiple administration (animals from Figure 3); an additional group of uninfected animals treated with a single dose of 13.5mg was used as control. TIZ concentration in plasma and in lung was quantified at 1, 2 and 4 hours post treatment for the single dose analysis (group of 3 animals) and at 12 hours after the last administration for the multiple dose analysis (group of 6 animals).

[1] = multiple dose NTZ 500mg/kg/day BID oral, at 3 dpi, 12 h (trough), individual values
[2] = multiple dose NTZ 750mg/kg/day TID oral, at 3 dpi, 12 hours (trough), individual values
[3] = multiple dose, infected animals, nitazoxanide per os 500 mg/kg/day BID, 12h post-administration, individual animals
[4] = multiple dose, infected animals, nitazoxanide per os 750 mg/kg/day TID, 12h post-administration, individual animals
[5] = single dose nitazoxanide 13.5mg, uninfected animals, 1h post-administration, individual animals
[6] = single dose nitazoxanide 13.5mg, uninfected animals, 2h post-administration, individual animals
[7] = single dose nitazoxanide 13.5mg, uninfected animals, 4h post-administration, individual animals
[8] = single oral dose 13.5mg NTZ, uninfected hamsters, 1 h post-treatment, individual values
[9] = single oral dose 13.5mg NTZ, uninfected hamsters, 2 h post-treatment, individual values
[10] = single oral dose 13.5mg NTZ, uninfected hamsters, 4 h post-treatment, individual values

Q: What does the source list for `O=C(Nc1ncc([N+](=O)[O-])s1)c1ccccc1O` [TIZ, tizoxanide]?
A: Kp at 12 h (Syrian, hamster, in vivo, 2.8 mg/kg/day TID, multiple dose, infected animals, nitazoxanide IN 2,8 mg/kg/day TID, 12h post-administration, individual animals, read-out: Lung to plasma ratio): 12.8; concentration at 12 h (Syrian, hamster, in vivo, 2.8 mg/kg/day TID, multiple dose, infected animals, nitazoxanide IN 2,8 mg/kg/day TID, 12h post-administration, individual animals, read-out: Tizoxanide concentration in blood): 8 ng/mL; concentration at 12 h (Syrian, hamster, in vivo, 2.8 mg/kg/day, multiple dose, infected animals, nitazoxanide IN 2,8 mg/kg/day TID, 12h post-administration, individual animals, read-out: Tizoxanide concentration in blood): 30 nM; concentration at 12 h (Syrian, hamster, in vivo, 2.8 mg/kg/day, multiple dose, infected animals, nitazoxanide IN 2,8 mg/kg/day TID, 12h post-administration, individual animals, read-out: Tizoxanide concentration in lungs): 11.7 ng/mL and 40 nM; concentration at 12 h (Syrian, hamster, in vivo, 750 mg/kg/day TID, multiple dose, infected animals, nitazoxanide per os 750 mg/kg/day TID, 12h post-administration, individual animals, read-out: Tizoxanide concentration in lungs): 40 nM; Kp at 12 h (hamster, in vivo, 2.8 mg/kg/day, multiple dose NTZ 2.8mg/kg/day TID intranasal, at 3 dpi, 12 hours (trough), read-out: L/p ratio): 1280; concentration at 12 h (hamster, in vivo, 2.8 mg/kg/day, multiple dose, infected animals, nitazoxanide IN 2,8 mg/kg/day TID, 12h post-administration, individual animals, read-out: Tizoxanide concentration in lungs): 103 ng/g; concentration at 12 h (hamster, in vivo, 2.8 mg/kg/day, multiple dose, infected animals, nitazoxanide IN 2,8 mg/kg/day TID, 12h post-administration, individual animals, read-out: Tizoxanide concentration in nasal turbinates): 14.8 ng/mL and 60 nM; Kp (hamster, in vivo, 13.5 mg, after single-dose administration (13.5mg NTZ), hamsters, read-out: lung/plasma ratio): 0.022 to 0.048; concentration at 1 h (hamster, in vivo, 13.5 mg, single dose nitazoxanide 13.5mg, uninfected animals, 1h post-administration, individual animals, read-out: Tizoxanide concentration in lungs): 21.5 ng/mL and 80 nM and 161 ng/g; Kp at 2 h (hamster, in vivo, 13.5 mg, single dose nitazoxanide 13.5mg, uninfected animals, 2h post-administration, individual animals, read-out: Lung to plasma ratio): 0.027; concentration at 2 h (hamster, in vivo, 13.5 mg, single dose nitazoxanide 13.5mg, uninfected animals, 2h post-administration, individual animals, read-out: Tizoxanide concentration in lungs): 17.1 ng/mL and 60 nM and 132 ng/g; Kp at 4 h (hamster, in vivo, 13.5 mg, single dose nitazoxanide 13.5mg, uninfected animals, 4h post-administration, individual animals, read-out: Lung to plasma ratio): 0.042; concentration at 4 h (hamster, in vivo, 13.5 mg, single dose nitazoxanide 13.5mg, uninfected animals, 4h post-administration, individual animals, read-out: Tizoxanide concentration in lungs): 8.3 ng/mL and 30 nM and 61 ng/g; concentration at 12 h (hamster, in vivo, 500 mg/kg/day BID, multiple dose NTZ 500mg/kg/day BID oral, infected hamsters at 3 dpi, 12 h after last dose (trough), mean ± SD, read-out: TIZ concentration Plasma): 940 ng/mL and 940 nM; concentration at 12 h (hamster, in vivo, 500 mg/kg/day BID, multiple dose, infected animals, nitazoxanide per os 500 mg/kg/day BID, 12h post-administration, individual animals, read-out: Tizoxanide concentration in lungs): 8.1 ng/mL and 30 nM and 57 ng/g; concentration at 12 h (hamster, in vivo, 750 mg/kg/day TID, multiple dose NTZ 750mg/kg/day TID oral, infected hamsters at 3 dpi, 12 hours after last dose (trough), mean ± SD, read-out: TIZ concentration Plasma): 1490 ng/mL and 1.49 µM; concentration at 1 h (hamster, in vivo, po, 13.5 mg, single oral dose 13.5mg NTZ, uninfected hamsters, 1 h post-treatment, mean ± SD, read-out: TIZ concentration Plasma): 5160 ng/mL and 5.16 µM; Kp at 2 h (hamster, in vivo, po, 13.5 mg, single oral dose 13.5mg NTZ, uninfected hamsters, 2 h post-treatment, individual values, read-out: L/p ratio (%)): 0.027; concentration at 2 h (hamster, in vivo, po, 13.5 mg, single oral dose 13.5mg NTZ, uninfected hamsters, 2 h post-treatment, mean ± SD, read-out: TIZ concentration Plasma): 3390 ng/mL and 3.39 µM; Kp at 4 h (hamster, in vivo, po, 13.5 mg, single oral dose 13.5mg NTZ, uninfected hamsters, 4 h post-treatment, individual values, read-out: L/p ratio (%)): 0.042; concentration at 4 h (hamster, in vivo, po, 13.5 mg, single oral dose 13.5mg NTZ, uninfected hamsters, 4 h post-treatment, mean ± SD, read-out: TIZ concentration Plasma): 820 ng/mL and 820 nM; TIZ concentration Lung (µM/g) (multiple dose NTZ 2.8mg/kg/day TID intranasal, at 3 dpi, 12 hours (trough), individual values): 0.39 µM/g and 0.41 µM/g; L/p ratio (%) [1]: 2.7% and 32.8%; TIZ concentration Lung (µM/g) [1]: 0.21 µM/g; L/p ratio (%) [2]: 2.9% and 6.3%; TIZ concentration Lung (µM/g) [2]: 0.28 µM/g and 0.60 µM/g; Tizoxanide concentration in lungs (multiple dose, infected animals, nitazoxanide IN 2,8 mg/kg/day TID, 12h post-administration, individual animals): 0.39 µM/g of lung and 11.3 ng/mL and 110 ng/g of lung and 0.41 µM/g of lung; Lung to plasma ratio [3]: 2.7% and 32.8%; Tizoxanide concentration in blood [3]: 40 ng/mL and 159 ng/mL and 2131 ng/mL and 2192 ng/mL and 171 ng/mL; Tizoxanide concentration in lungs [3]: 0.21 µM/g of lung and 10.6 ng/mL and 56 ng/g of lung; concentration at 12 h (multiple dose, infected animals, nitazoxanide per os 500 mg/kg/day BID, 12h post-administration, individual animals, read-out: Tizoxanide concentration in blood): 150 nM and 600 nM and 8030 nM and 8260 nM and 640 nM; concentration at 12 h (multiple dose, infected animals, nitazoxanide per os 500 mg/kg/day BID, 12h post-administration, individual animals, read-out: Tizoxanide concentration in lungs): 40 nM; Lung to plasma ratio [4]: 2.9% and 6.3%; Tizoxanide concentration in blood [4]: 40 ng/mL and 2494 ng/mL and 79 ng/mL and 2205 ng/mL and 1637 ng/mL and 2500 ng/mL; Tizoxanide concentration in lungs [4]: 9.7 ng/mL and 73 ng/g of lung and 0.28 µM/g of lung and 21.0 ng/mL and 158 ng/g of lung and 0.60 µM/g of lung; concentration at 12 h (multiple dose, infected animals, nitazoxanide per os 750 mg/kg/day TID, 12h post-administration, individual animals, read-out: Tizoxanide concentration in blood): 150 nM and 9400 nM and 300 nM and 8310 nM and 6170 nM and 9430 nM; concentration at 12 h (multiple dose, infected animals, nitazoxanide per os 750 mg/kg/day TID, 12h post-administration, individual animals, read-out: Tizoxanide concentration in lungs): 80 nM; Lung to plasma ratio [5]: 4.8% and 2.2%; Tizoxanide concentration in blood [5]: 3319 ng/mL and 10008 ng/mL and 2151 ng/mL; Tizoxanide concentration in lungs [5]: 0.61 µM/g of lung and 26.7 ng/mL and 224 ng/g of lung and 0.84 µM/g of lung; concentration at 12 h (single dose nitazoxanide 13.5mg, uninfected animals, 1h post-administration, individual animals, read-out: Tizoxanide concentration in blood): 12510 nM and 37730 nM and 8110 nM; concentration at 12 h (single dose nitazoxanide 13.5mg, uninfected animals, 1h post-administration, individual animals, read-out: Tizoxanide concentration in lungs): 100 nM; Tizoxanide concentration in blood [6]: 1477 ng/mL and 3758 ng/mL and 4927 ng/mL; Tizoxanide concentration in lungs [6]: 0.50 µM/g of lung; concentration at 12 h (single dose nitazoxanide 13.5mg, uninfected animals, 2h post-administration, individual animals, read-out: Tizoxanide concentration in blood): 5570 nM and 14170 nM and 18580 nM; Tizoxanide concentration in blood [7]: 344 ng/mL and 666 ng/mL and 1459 ng/mL; Tizoxanide concentration in lungs [7]: 0.23 µM/g of lung; concentration at 12 h (single dose nitazoxanide 13.5mg, uninfected animals, 4h post-administration, individual animals, read-out: Tizoxanide concentration in blood): 1300 nM and 2510 nM and 5500 nM; L/p ratio (%) [8]: 4.8% and 2.2%; TIZ concentration Lung [8]: 0.16 µg/g and 0.22 µg/g; TIZ concentration Lung (µM/g) [8]: 0.61 µM/g and 0.84 µM/g; TIZ concentration Lung [9]: 0.13 µg/g; TIZ concentration Lung (µM/g) [9]: 0.50 µM/g; TIZ concentration Lung [10]: 0.06 µg/g; TIZ concentration Lung (µM/g) [10]: 0.23 µM/g
